Here are results for nine molecules from US20260092061A1, “COMPOUNDS FOR TARGETED PROTEIN DEGRADATION” (Amphista Therapeutics Limited, priority 2022, published 2026).

For assay [1], the target named is T1, BRD9 (Homo sapiens, UniProt Q9H8M2).
T1 sequence (Q9H8M2 1-597): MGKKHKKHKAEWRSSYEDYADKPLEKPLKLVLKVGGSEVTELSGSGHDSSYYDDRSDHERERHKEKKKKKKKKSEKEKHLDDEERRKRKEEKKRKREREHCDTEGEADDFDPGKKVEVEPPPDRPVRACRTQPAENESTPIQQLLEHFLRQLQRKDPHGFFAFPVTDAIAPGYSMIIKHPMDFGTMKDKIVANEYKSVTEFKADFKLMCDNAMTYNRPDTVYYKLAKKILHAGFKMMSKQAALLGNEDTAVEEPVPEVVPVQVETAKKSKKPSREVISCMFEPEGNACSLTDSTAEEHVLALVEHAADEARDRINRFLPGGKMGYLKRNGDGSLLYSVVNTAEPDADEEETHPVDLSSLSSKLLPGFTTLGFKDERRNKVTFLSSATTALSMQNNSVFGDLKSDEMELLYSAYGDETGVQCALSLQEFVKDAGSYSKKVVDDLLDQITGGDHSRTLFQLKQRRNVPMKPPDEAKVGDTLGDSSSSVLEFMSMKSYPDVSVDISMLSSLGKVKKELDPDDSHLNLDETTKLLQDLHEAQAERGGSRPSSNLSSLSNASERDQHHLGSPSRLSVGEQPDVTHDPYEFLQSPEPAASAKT
The assay is described as follows: Degradation of BRD9 (IF), immunofluorescence in MV4-11 cells, 24 hours (Assay Protocol 2). It counts as cell-based. Details: A suspension of MV4-11 cells (ATCC CRL-9591) was prepared; host or cells: MV4-11. The gist of the method:
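MV4-11 cells treated with compound 24 h at 37° C., then fixed, permeabilised and immunostained for BRD9 (anti-BRD9 E4Q3F, Alexa 647 secondary, Hoechst counterstain). High-content imaging quantified nuclear BRD9 signal; % BRD9 remaining normalised to DMSO and 100 nM CFT-8634 controls.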

The target of assay [2] is T1, BRD9. The assay is described as follows: BRD9 degradation, HiBiT-BRD9 KI HEK293 (LgBiT) cells, NanoGlo Lytic Endpoint assay (Assay Protocol 1). The format is cell-based. The settings on record: BRD9 degradation; for Dmax at 1 µM / Dmax: HEK293; for Dmax at 1 µM: 1 μM compound at 6 h of treatment, read-out: Assay 1 Dmax. The gist of the method: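 HiBiT-tagged BRD9 knock-in HEK293 (LgBiT) cells exposed to compounds for 6 h at 37 °C, 5% CO2. Residual BRD9 measured by HiBiT lytic luminescence. % BRD9 remaining normalised to DMSO-treated cells (high) and no-cell wells (low).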

The mark [3] stands for this setting: MV4-11, 24 h, Table 2, BRD9 degradation (IF), Assay Protocol 2, MV4-11 cells, read-out: Assay 2 DCmax.
Where [4] appears, read: Table 2, BRD9 degradation (IF), Assay Protocol 2, MV4-11 cells, read-out: Assay 2 DC50.
[5] abbreviates: Table 2, Assay Protocol 1, 6 h of treatment, read-out: Assay 1 DC50.
[6] abbreviates: Assay protocol 2, BRD9 degradation, read-out: DC50.
Where [7] appears, read: MV4-11, Assay protocol 2, BRD9 degradation, read-out: Dmax.
The mark [8] stands for this setting: Assay protocol 1, read-out: DC50.
Setting [9] is: Assay protocol 1, read-out: Dmax.
Where [10] appears, read: Table 4, BRD9 degradation, determined according to Assay Protocol 2, read-out: DC50^2.
The mark [11] stands for this setting: Table 4, determined according to Assay Protocol 1, read-out: Dmax^1.
The mark [12] stands for this setting: Table 4, determined according to Assay Protocol 1, read-out: DC50^1.

In the case of `COc1cc(-c2cn(C)c(=O)c3cnccc23)cc(OC)c1CN1CCN(Cc2cccc3c2CCN(C(=O)/C(C#N)=C\C2(F)CC2)C3C)CC1` (mixture of isomers) [Compound A22, (E/Z)-2-(5-((4-(2,6-dimethoxy-4-(2-methyl-1-oxo-1,2-dihydro-2,7-naphthyridin-4-yl)benzyl)piperazin-1-yl)methyl)-1-methyl-1,2,3,4-tetrahydroisoquinoline-2-carbonyl)-3-(1-fluorocyclopropyl)acrylonitrile], in assay [1] (setting [3]), the Dmax is more than 75%. In addition, the DC50 in assay [1] (setting [4]) was less than 1.25 nM; in assay [2] (setting [5]) it was 1.25 to 10 nM. Besides, in assay [2] (Table 2, Assay Protocol 1), the Dmax at 1 µM was more than 75%.

As to `CCCC(c1ccc(C(=O)N(C)CCCCCCC(=O)N2CCN(Cc3c(OC)cc(-c4cn(C)c(=O)c(C)c4C)cc3OC)CC2)cc1)N(C)C(=O)/C(C#N)=C/c1nccs1` (mixture of isomers) [Compound B182, (E/Z)-4-(1-(2-cyano-N-methyl-3-(thiazol-2-yl)acrylamido)butyl)-N-(7-(4-(2,6-dimethoxy-4-(1,4,5-trimethyl-6-oxo-1,6-dihydropyridin-3-yl)benzyl)piperazin-1-yl)-7-oxoheptyl)-N-methylbenzamide], the DC50 lay within 1.25 to 10 nM in assay [1] (setting [6]) and 25 to 1000 nM in assay [2] (setting [8]). Also, the Dmax in assay [1] (setting [7]) and in assay [2] (setting [9]) was 40 to 70% in each case.

For `CCCC(c1ccc(C(=O)N(C)CCCCC(=O)N2CCN(Cc3c(OC)cc(-c4cn(C)c(=O)c(C)c4C)cc3OC)CC2)cc1)N(C)C(=O)/C(C#N)=C/c1nccs1` (mixture of isomers) [Compound B181, (E/Z)-4-(1-(2-cyano-N-methyl-3-(thiazol-2-yl)acrylamido)butyl)-N-(5-(4-(2,6-dimethoxy-4-(1,4,5-trimethyl-6-oxo-1,6-dihydropyridin-3-yl)benzyl)piperazin-1-yl)-5-oxopentyl)-N-methylbenzamide], the DC50 in assay [1] (setting [6]) lay within 10 to 25 nM. Besides, the Dmax in assay [1] (setting [7]) and in assay [2] (setting [9]) was 40 to 70% in each case.

For `COc1cc(-c2cn(C)c(=O)c(C)c2C)cc(OC)c1CN1CCN(C(=O)C2CC(C(C)C)CN(C(=O)/C(C#N)=C/C(C)(C)C)C2)CC1` (stereo not shown) [Compound B207], the Dmax in assay [1] (MV4-11, Table 4, BRD9 degradation, determined according to Assay Protocol 2, read-out: Dmax^2) is more than 70%; in assay [2] (setting [11]), more than 70%. Further, the DC50 in assay [1] (setting [10]) and in assay [2] (setting [12]) was 25 to 200 nM each time.

As to `COc1cc(-c2cn(C)c(=O)c(C)c2C)cc(OC)c1CN1C2CC1CN(Cc1cccc3c1CCN(C(=O)/C(C#N)=C/C(C)(C)C)C3C)C2` (mixture of isomers) [Compound B13, (E/Z)-2-(5-((6-(2,6-dimethoxy-4-(1,4,5-trimethyl-6-oxo-1,6-dihydropyridin-3-yl)benzyl)-3,6-diazabicyclo[3.1.1]heptan-3-yl)methyl)-1-methyl-1,2,3,4-tetrahydroisoquinoline-2-carbonyl)-4,4-dimethylpent-2-enenitrile], the DC50 in assay [1] (setting [6]) was 1.25 to 10 nM; in assay [2] (setting [8]) it was 10 to 25 nM. The Dmax in assay [1] (setting [7]) is 40 to 70%; in assay [2] (setting [9]), more than 75%.

Consider `COc1cc(-c2cn(C)c(=O)c(C)c2C)cc(OC)c1CN1C[C@H](C)N(Cc2cccc3c2CCN(C(=O)/C(C#N)=C/C(C)(C)C)C3C)C[C@H]1C` (mixture of isomers) [Compound B122, (E/Z)-2-(5-(((2S,5R)-4-(2,6-dimethoxy-4-(1,4,5-trimethyl-6-oxo-1,6-dihydropyridin-3-yl)benzyl)-2,5-dimethylpiperazin-1-yl)methyl)-1-methyl-1,2,3,4-tetrahydroisoquinoline-2-carbonyl)-4,4-dimethylpent-2-enenitrile], for which the results for the DC50 in assay [1] (setting [6]) and in assay [2] (setting [8]) were 10 to 25 nM and 1.25 to 10 nM, respectively. Also, the Dmax in assay [1] (setting [7]) and in assay [2] (setting [9]) was more than 75% each time.

With `COc1cc(-c2cn(C)c(=O)c(C)c2C)cc(OC)c1CN1CC2CC(C1)N2C(=O)/C(C#N)=C/c1cccc(Br)n1` (mixture of isomers) [BRD9m, (E/Z)-3-(6-bromopyridin-2-yl)-2-(3-(2,6-dimethoxy-4-(1,4,5-trimethyl-6-oxo-1,6-dihydropyridin-3-yl)benzyl)-3,6-diazabicyclo[3.1.1]heptane-6-carbonyl)acrylonitrile], the values for the DC50 in assay [1] (setting [10]) and in assay [2] (setting [12]) were more than 200 nM and less than 25 nM, respectively. Further, the Dmax in assay [2] (setting [11]) is more than 70%.

Consider `CCCC(c1ccc(C(=O)N(C)CCCCCCCCC(=O)N2CCN(Cc3c(OC)cc(-c4cn(C)c(=O)c(C)c4C)cc3OC)CC2)cc1)N(C)C(=O)/C(C#N)=C/c1nccs1` (mixture of isomers) [Compound B183, (E/Z)-4-(1-(2-cyano-N-methyl-3-(thiazol-2-yl)acrylamido)butyl)-N-(9-(4-(2,6-dimethoxy-4-(1,4,5-trimethyl-6-oxo-1,6-dihydropyridin-3-yl)benzyl)piperazin-1-yl)-9-oxononyl)-N-methylbenzamide], for which the DC50 in assay [1] (setting [6]) is 1.25 to 10 nM; in assay [2] (setting [8]), 25 to 1000 nM. Also, the Dmax in assay [1] (setting [7]) was more than 75%; in assay [2] (setting [9]), 40 to 70%.

For `COc1cc(-c2cn(C)c(=O)c3cnccc23)cc(OC)c1CN1CCN(Cc2cccc3c2CCN(C(=O)/C(C#N)=C/c2nccs2)C3C)CC1` (mixture of isomers) [Compound A2, (E/Z)-2-(5-((4-(2,6-dimethoxy-4-(2-methyl-1-oxo-1,2-dihydro-2,7-naphthyridin-4-yl)benzyl)piperazin-1-yl)methyl)-1-methyl-1,2,3,4-tetrahydroisoquinoline-2-carbonyl)-3-(thiazol-2-yl)acrylonitrile], in assay [1] (setting [3]), the Dmax lay in the range of 40 to 70%. Further, the DC50 in assay [1] (setting [4]) and in assay [2] (setting [5]) was less than 1.25 nM in each case. Moreover, in assay [2] (Table 2, Assay Protocol 1), the Dmax at 1 µM was 40 to 70%.
